The values below come from patent US10307371B2 (AI Therapeutics, Inc., priority 2014, dated 2019).

The conditions of data set [1]: cancer patients administered temsirolimus or everolimus; cited from earlier work.
The nature of data set [2]: Concentration of rapamycin in blood and lung after oropharyngeal aspiration (OPA) or oral gavage, LC-MS/MS. The class given is in vivo, C57BL/6 mice. Particulars: 1 mg/kg. On the procedure:
Each animal was weighed prior to dosing to determine the amount of dose to be administered. A single gavage dose was administered using a 100-μL glass syringe (Hamilton, Reno, Nev.) fitted with a ball-tipped 20-G stainless steel gavage dosing needle (Popper & Sons Inc., New Hyde Park, N.Y.). The dose administered to each animal was determined from the weight of the full syringe minus that of the empty syringe. The dosing time was recorded. Dosing of animals was spaced apart to allow blood collection at the appropriate times. The dose formulations administered to each group are shown below.
Each mouse was anesthetized with isoflurane, and restrained with the mouth open. The tongue was held to one side of the mouth with forceps, and the dose was slowly injected into the distal part of the oral cavity. The nostrils were covered with a finger for two breaths to ensure aspiration (Rao et al., 2003).
Collection of Blood and Lung Samples: At study termination (1 or 72 h after dosing), mice were anesthetized by exposure to CO2, and blood was collected by cardiac puncture with dipotassium EDTA as anticoagulant. Lung tissue was excised and divided into the right and left lung. The left lung was used for analysis, and the right lung flash frozen in liquid nitrogen and stored at −70° C. for further analysis.
Triamcinolone was used as internal standard.
Lung homogenate was prepared by homogenization of weighed lung samples with 2.8-mm ball bearings in a homogenizer with tissue+deionized water (1:3 w/v) in a SPEX SamplePrep 2010 Geno/Grinder.
The concentrations of standards were arranged so that each standard came from an alternate stock standard. A six-point calibration curve, each made in triplicate, was employed for analyte quantitation. A simple linear regression model with or without weighting was employed for curve fitting. The concentration range determined was from 1-2000 ng/mL in blood and 2-2000 ng/mL in lung homogenate.
Thirty (30) μL of matrix, 30 μL of spiking solution (methanol for blanks and samples), 10 μL Internal standard solution (in MeOH) and 90 μL of MeOH were pipetted into microcentrifuge tubes, vortexed briefly, then centrifuged for 6 min at 10,000 RPM at ˜4° C. Aliquots (90 μL) of supernatant were transferred to LC vial inserts, and then analyzed by LC-MS/MS (Table 2).

Data set [3] is described as follows: Particle size distribution by laser diffraction after jet milling or wet polishing. The format is physicochemical. On the procedure: For jet milling, a lab scale MCOne unit from Jetpharma was used with the following operating conditions: venturi pressure 2-4 bar, milling pressure 3-5 bar, feed rate 90 g/h. For wet polishing, feed suspensions were prepared using purified water. A microfluidics high pressure homogenizer was used for the size reduction step and the resulting suspension was spray-dried. Details of the wet polishing process are set forth below.
The high pressure homogenizer used for the size reduction step of the wet polishing process was a pilot-scale Microfluidics High Pressure Homogenizer equipped with an auxiliary processing module (200 micron) and a 100 micron interaction chamber was used. The unit was operated at ˜455 bar (˜30 bar in the intensifier module hydraulic pressure). After microfluidization the fluid was removed by spray drying to generate a dry powder. A laboratory scale spray dryer, SD45 (BÜCHI, model B-290 Advanced) was equipped with a two fluid nozzle (cap and diameter were 1.4 and 0.7 mm, respectively). Two cyclones in series were used (being the first the standard Buchi cyclone and the second the high-performance Buchi cyclone) to collect the dried product. The spray drying unit was operated with nitrogen and in single pass mode, i.e. without recirculation of the drying nitrogen. The aspirator, blowing nitrogen, was set at 100% of its capacity (flow rate at maximum capacity is approximately 40 kg/h). The flow rate of the atomization nitrogen was adjusted to a value in the rotameter of 40±5 mm. Before feeding the product suspension, the spray dryer was stabilized with purified water, during which the flow rate was adjusted to 6 ml/min (20% in the peristaltic pump). The inlet temperature was adjusted to achieve the target outlet temperature (45° C.). After stabilization of the temperatures, the feed of the spray dryer was commuted from purified water to the product suspension (keeping the same flow rate used during stabilization) and the inlet temperature once again adjusted in order to achieve the target outlet temperature. At the end of the stock suspension, the feed was once more commuted to purified water in order to rinse the feed line and perform a controlled shut down. The dry product in the collection flasks under both cyclones was weighed and the yield calculated as the mass percentage of the dry product in relation to the total solids in the suspension fed to the high pressure homogenizer.
Particle size distribution was analyzed by laser diffraction. Solid state characterization (for polymorphic form and purity) was performed by high pressure liquid chromatography (HPLC), X-ray powder diffraction (XRPD), and differential scanning calorimetry (mDSC). Water content was determined by the Karl Fischer method.

The conditions of data set [4]: human, cited from earlier work.
The conditions of data set [5]: cited from earlier work.
The subject of data set [6] is angiomyolipomas. Particulars: oral, 20 patients, cited from earlier work.
The subject of data set [7] is renal angiomyolipomas. The conditions noted are these: oral, 16 patients, cited from earlier work.
The conditions of data set [8]: study of 10 LAM patients; cited from earlier work.
The conditions of data set [9]: oral, 12 months, cited from earlier work.
Data set [10] relates to mTOR. Nature of the data set: S6 phosphorylation in mouse lung as biomarker for mTOR activity. The conditions noted are these: lung tissue.
From the text: To validate this approach, we used the presence of phosphorylated S6 protein in murine lung tissue as a biomarker for mTOR activity.
Data set [11] can be described thus: Observation for adverse effects / clinical signs after OPA or gavage dosing.
Method: An additional group of 6 mice received vehicle only (10% ethanol in water). […] At the 72-h necropsy, blood was obtained by cardiac puncture and the lungs removed.
The weight of dose solution administered was determined by weighing the charged syringe with dose solution prior to dosing, and weighing following dosing. […] The time of dosing was recorded as 0. Animals in groups 2 and 3 were euthanized at 1 h after dosing.
[12] abbreviates: Gavage (Rapamune Oral), 1 h post-dose, individual animals.
The mark [13] stands for this setting: OPA, 1 h post-dose, individual animals.
The mark [14] stands for this setting: OPA, 72 h post-dose, individual animals.

Where “and” joins values, the source holds several entries; their conditions need not be identical. Equal entries are not always repeated. Entries after “also recorded” stand apart in the source; their conditions may differ. Where only a bound is given, the exact number is not on record here.

Consider `CO[C@H]1C[C@@H]2CC[C@@H](C)[C@@](O)(O2)C(=O)C(=O)N2CCCC[C@H]2C(=O)O[C@H]([C@H](C)C[C@@H]2CC[C@@H](OC(=O)C(C)(CO)CO)[C@H](OC)C2)CC(=O)[C@H](C)/C=C(\C)[C@@H](O)[C@@H](OC)C(=O)[C@H](C)C[C@H](C)/C=C/C=C/C=C/1C` [temsirolimus], for which the “Cancer patients who may experience mild grade pulmonary toxicity” value in data set [1] is 10%.
For `CO[C@H]1C[C@@H]2CC[C@@H](C)[C@@](O)(O2)C(=O)C(=O)N2CCCC[C@H]2C(=O)O[C@H]([C@H](C)C[C@@H]2CC[C@@H](OCCO)[C@H](OC)C2)CC(=O)[C@H](C)/C=C(\C)[C@@H](O)[C@@H](OC)C(=O)[C@H](C)C[C@H](C)/C=C/C=C/C=C/1C` [everolimus], the “Cancer patients who may experience mild grade pulmonary toxicity” value in data set [1] is recorded as 10%.
For the molecule `CO[C@H]1C[C@@H]2CC[C@@H](C)[C@@](O)(O2)C(=O)C(=O)N2CCCC[C@H]2C(=O)O[C@H]([C@H](C)C[C@@H]2CC[C@@H](O)[C@H](OC)C2)CC(=O)[C@H](C)/C=C(\C)[C@@H](O)[C@@H](OC)C(=O)[C@H](C)C[C@H](C)/C=C/C=C/C=C/1C` [Rapamycin, (3S,6R,7E,9R,10R,12R,14S,15E,17E,19E,21S,23S,26R,27R,34aS)-9,10,12,13, -14,21,22,23,24,25,26,27,32,33,34,34a-hexadecahydro-9,27-dihydroxy-3-[(1R)-2-[(1S,3R,4R)-4-hydroxy-3-methoxycyclohexyl]-1-methylethyl]-10,21-dimethox-y-6,8,12,14,20,26-hexamethyl-23,27-epoxy-3H-pyrido[2,1-c][1,4]oxaazacyclohentriacontine-1,5,11,28,29(4H,6H,31H)-pentone], in data set [2] (setting [12]), the “Blood” value is 49.85 ng/mL and 11.3 ng/mL and 28.7 ng/mL and 28.35 ng/mL and 2.845 ng/mL and 19.35 ng/mL; the “Lung (ng/g tissue)” value is 109.8 ng/g tissue and 24.66 ng/g tissue and 122.8 ng/g tissue and 54 ng/g tissue and <LOQ and 43 ng/g tissue. Also, in [2] (setting [13]), the “Blood” value was 622 ng/mL and 364.5 ng/mL and 937 ng/mL and 848.5 ng/mL and 615.5 ng/mL and 455.5 ng/mL; the “Lung (ng/g tissue)” value was 4500 ng/g tissue and 1874 ng/g tissue and 4006 ng/g tissue and 4700 ng/g tissue and 5040 ng/g tissue and 2642 ng/g tissue. Besides, the “Rapamycin in blood, group statement” value in data set [2] (OPA, 72 h post-dose) is “below the limit of quantitation; also recorded: undetectable”. Also, in data set [2] (setting [14]), the “Blood (ng/ml)” value was “<ELOQ”; the “Lung (ng/g tissue)” value was 11.4 ng/g tissue and 15.7 ng/g tissue and 10.8 ng/g tissue and 11.9 ng/g tissue and 13.6 ng/g tissue. In addition, in data set [2] (oral (gavage), 72 hrs), the Rapamycin in blood entry is listed as “undetectable” and the Rapamycin in lung result is given as “undetectable”. Also, in data set [3] (jet milling), the “PSD Dv10” value is 1.5 μm and 1.51 μm; the “PSD Dv50” value is 2.7 μm and 2.74 μm; the “PSD Dv90” value was 4.9 μm and 4.91 μm. Further, in data set [3] (wet polishing), the “PSD Dv10” value is 1.0 μm and 1.05 μm; the “PSD Dv50” value is 2.4 μm and 2.42 μm; the “PSD Dv90” value was 5.0 μm and 4.97 μm. In data set [4] (Rapamune NDA 21-110 and 21-083), the Volume of distribution is 780 L. Also, in data set [4] (assuming equivalency to rapamycin IV dosing), the Elimination half-life is 42.3 h. The “Chemical stability of the amorphous form” value in data set [5] is listed as “extremely chemically unstable”. For the same molecule, in data set [6] (24 months), the Serious adverse events entry was “diarrhea, pneumonia, pyelonephritis, cellulitis (from an animal bite), stomatitis, and hemorrhage of a renal angiomyolipoma”. Moreover, the Angiomyolipoma response result in data set [6] (during the treatment period) is “regressed “somewhat””. Besides, in [7] (up to 2 years), the Renal angiomyolipoma response result is recorded as “sustained regression of renal angiomyolipomas” and the “Steady state blood levels” value is 3 to 10 ng/mL. Further, in [7], the Adverse events entry was “oral mucositis, respiratory infections, and proteinuria”. For the same molecule, in data set [8], the “Patients discontinued because of serious recurrent lower respiratory tract infection or sirolimus-induced pneumonitis” value was 3 patients. Besides, in data set [9] (blood levels 5-15 ng/ml), the Lung function result is recorded as “stabilized lung function” and the “Serum VEGF-D levels” value is listed as “reduced serum VEGF-D levels”. In addition, the “Blood levels at which patients were maintained” value in data set [9] was 5 to 15 ng/mL. In data set [10], the “Drug level in the lung that substantially abrogates mTOR signaling (pS6)” value is reported as “about 70 ng/g”. The Clinical signs entry in data set [11] (OPA or gavage, 1 mg/kg, up to 72 h after dosing, all groups) is recorded as “No significant clinical signs were observed”. In addition, in data set [11] (OPA, 1 mg/kg, 72 h period following dosing), the Adverse effects result was “No adverse effects were observed”. The “Acute toxicity to lung tissue” value in data set [11] (relatively high amounts delivered directly to lung (OPA, 1 mg/kg)) is given as “not acutely toxic to lung tissue”.
